According to publication PMC12687424, “Penetrant PKCβ mutation in ATLL displays a mixed gain-of-function” (Biochemical Journal, 2025):

Experiments:
[1] = tested on: D427N PKCβII catalytic domain; experiment: ADP-Glo in vitro kinase assay with ATP-competitive inhibitors, D427N compared with WT; assay type: biochemical; conditions: 50 μM ATP, 200 μM PSS peptide; IC50 of D427N higher than WT
Description: Given the proximity of the mutation to the nucleotide pocket of the kinase, we compared the potency of three ATP-competitive inhibitors in WT and D427N PKCβII to assess if existing PKC inhibitors could be used to target the mutant. We assayed WT and D427N PKCβII catalytic domains at 50 μM ATP with one indolocarbazole inhibitor (UCN-01) and two bisindolylmaleimide inhibitors (BIM-1 and the PKCβ-specific inhibitor ruboxistaurin) (Figure 5A–C). […] These differences were 17-fold for ruboxistaurin, 9-fold for BIM-1 and 25-fold for UCN-01.
Figure 5 Pharmacology of D427N PKCβII. A–C – Representative dose-response curves when WT and D427N PKCβII catalytic domains were assayed with the indicated inhibitors, 50 μM ATP and 200 μM PSS peptide. ADP produced in the assays was measured by luminescence and converted to specific activity using an ADP standard curve. Error bars indicate the mean ± SD from three technical replicates. D – IC50 values obtained from fitting curves in (A-C). Error bars indicate the mean ± SD from three independent dose-response assays (*=P<0.05, **=P<0.01 versus WT by t-test with Holm–Šídák correction for multiple comparisons). E,F – Orthogonal views of Ruboxistaurin (pink) in the PKCβII nucleotide-binding pocket (cyan). A σA-weighted |2Fo-Fc| map is shown contoured at 1.5 σ. The location of the N427 side chain is indicated. Figure was generated using UCSF ChimeraX.
Kinase assays were carried out in white, 384-well OptiPlates (PerkinElmer) using an ADP-Glo kit (Promega) on a scale of […] for the kinase reaction. Kinase was diluted in assay buffer (40 mM Tris-HCl pH 7.5, 20 mM MgCl2, 0.1 mg/ml BSA (NEB, #B9000S), 1 mM DTT) and added to the plate (typically 0.5–1 ng/well). The assay was started by adding the substrates at a final concentration of 50–300 μM [ATP and either histone type III-S (Sigma, #H5505), MBP (Sigma, #M1891), or a peptide]. […] Luminescence was recorded using an EnSight MultiMode Plate Reader (PerkinElmer), and the slope of a standard curve was used to convert luminescence values to specific activity in nmol ADP/min/mg.

[2] = biological target: D427N PKCβII catalytic domain; experiment: Fluorescence polarisation binding of fluorescein-PSS peptide, D427N; conditions: catalytic domains
Description: Figure 3 D427N PKCβII has an altered substrate repertoire in vitro . A–D – Representative titration curves from assays of WT or D427N PKCβII catalytic domains with excess ATP and titrations of either histone type III-S, MBP, PSS peptide or BTK S180 peptide. Specific activity in nmol/min/mg was calculated using an ADP standard curve. Error bars indicate the mean ± SD from three technical replicates. E and F – Km and Vmax values of WT and D427N PKCβII catalytic domains for each substrate, obtained from Michaelis–Menten fits of titration curves in (A-D). Error bars indicate the mean ± SD from three independent assays (*=P<0.05, **=P<0.01 versus WT by t-test with Holm–Šídák correction for multiple comparisons). G – Representative binding curves of anisotropy vs protein concentration when WT or D427N PKCβII catalytic domains were titrated into fluorescein–PSS peptide; KD values are shown ± the error of the fit. […] H – Differential heat map of WT and D427N PKCβII activity towards a PamChip microarray, calculated from log2 fold change values relative to a no ATP control array. […] The measured ligand is the PSS peptide, and WT and D427N are protein variants.
Fluorescence polarisation (FP) experiments were performed using an FP-8500 spectrofluorometer (Jasco). […] Equilibrium dissociation constants were determined by plotting anisotropy as a function of PKCβII catalytic domain concentration. […]

Row | difference in IC50, D427N PKCβII catalytic domain versus WT [1] | binding affinity of D427N PKCβII relative to WT (from KD values) [2] | Structure (SMILES)
1 | 17 fold |  | CN(C)C[C@@H]1CCn2cc(c3ccccc32)C2=C(C(=O)NC2=O)c2cn(c3ccccc23)CCO1 [ruboxistaurin]
2 | 9 fold |  | CN(C)CCCn1cc(C2=C(c3c[nH]c4ccccc34)C(=O)NC2=O)c2ccccc21 [BIM-1]
3 |  | two-fold weaker affinity than WT | CC(C)C[C@H](NC(=O)[C@H](CO)NC(=O)CNC(=O)[C@H](CCCCN)NC(=O)[C@H](CCCNC(=N)N)NC(=O)[C@H](C)NC(=O)[C@H](Cc1ccccc1)NC(=O)[C@H](CCCNC(=N)N)NC(=O)[C@@H](NC(=O)[C@@H](NC(=O)[C@H](CO)NC(=O)[C@H](CCC(=O)O)NC(=O)c1ccc2c(c1)C(=O)OC21c2ccc(O)cc2Oc2cc(O)ccc21)[C@@H](C)O)C(C)C)C(=O)N[C@@H](CCCNC(=N)N)C(=O)N[C@@H](CCC(N)=O)C(=O)N[C@@H](CCCCN)C(=O)N[C@@H](CC(N)=O)C(=O)N[C@H](C(=O)N[C@@H](Cc1c[nH]cn1)C(N)=O)C(C)C

Row | Structure (SMILES) | difference in IC50, D427N PKCβII catalytic domain versus WT [1] | binding affinity of D427N PKCβII relative to WT (from KD values) [2]
4 | CNC1CC2OC(C)(C1OC)n1c3ccccc3c3c4c(c5c6ccccc6n2c5c31)C(=O)NC4O (stereo not shown) [UCN-01] | 25 fold | 
